# Experimental data as given in US8957108B2, “Use of 5,6-dimethylxanthenone-4-acetic acid as an antiviral agent” (University of Maryland, Baltimore, priority 2006, dated 2015).
# Legend:
# [1] = system: IRF-3; assay: Native-PAGE and Western blotting for IRF-3 dimers; type: cell-based, mouse; details: peritoneal macrophages, DMXAA- vs. LPS-stimulated
# Experimental: Rabbit anti-mouse IκBα phospho-specific Ab (pAb) was purchased from Santa Cruz Biotechnology, Inc. (Santa Cruz, Calif.). Rabbit anti-mouse MAPK pAb and rabbit anti-human phospho-IRF-3 pAb antibodies were purchased from Cell Signaling (Danvers, Mass.). Rabbit anti-mouse IRF-3 pAb was purchased from Zymed (South San Francisco, Calif.). Native-PAGE for the detection of IRF-3 dimers was carried out as described in Iwamura, T. et al. (2001) “Induction Of IRF-3/-7 Kinase And NF-kappaB in Response To Double-Stranded RNA And Virus Infection: Common And Unique Pathways,” Genes and Cells 6:375-388. Briefly, thioglycollate-elicited peritoneal macrophages were lysed following stimulation with either LPS or DMXAA as indicated. […] Membranes were probed with a 1:250 dilution of rabbit anti-mouse IRF-3 for 1 h at room temperature. Goat anti-rabbit IgG-HRP (Cell Signaling Technologies, Danvers, Mass.) at a 1:2000 dilution was used as the secondary Ab. Blots were developed with ECL Plus (Amersham Biosciences, Piscataway, N.J.).
# [2] = system: MEFs; assay: RANTES protein in MEF supernatants; type: cell-based, mouse; details: 24 h
# Experimental: IFN-β protein in cell culture supernatants was measured using a custom ELISA originally described in Weinstein, S. L. et al. (2000) “Phosphatidylinositol 3-Kinase And mTOR Mediate Lipopolysaccharide-Stimulated Nitric Oxide Production In Macrophages Via Interferon-Beta,” J. Leukocyte Biol. 67:405-414, with few modifications. […] Plates were blocked with 10% FCS in 1×PBS for 2 h at room temperature. Samples and a murine IFN-β standard (NIH, Bethesda, Md.) were added to wells and incubated overnight at 4° C. […] Wells were washed 3× followed by incubation with a 1:2000 dilution of goat anti-rabbit HRP (Cell Signaling Technologies, Beverly, Mass.) in 10% FCS-PBS for 1 h at room temperature. Plates were washed 3× and developed with TMB substrate (KPL, Gaithersburg, Md.). The reaction was stopped by addition of 1N H2SO4, and plates were read at 450 nm. RANTES and TNF-α were quantified using Luminex bead-based colorimetric assays. […] For stimulation of cells, poly(I:C) was mixed with Fugene 6 transfection reagent (Roche) at a ratio of 1:1 (volume:weight) in OptiMEM medium and incubated for 15 min prior to stimulation. Culture supernatants of cells (2×10^4) seeded on 96-well plates were collected after 24 h stimulation and analyzed for RANTES levels with ELISA. ELISA was performed according to the manufacturer's instructions (R&D Systems).
# [3] = system: peritoneal macrophages; assay: Quantitative real-time PCR of cytokine mRNA in murine peritoneal macrophages
# [4] = system: Ft LVS; details: DMXAA alone (100 μg/ml), over a 24 hr period
smiles,measurement,setting,value
"Cc1ccc2c(=O)c3cccc(CC(=O)O)c3oc2c1C [DMXAA, 5,6-dimethylxanthenone-4-acetic acid]",activated IRF-3 dimers,[1],much more abundant and longer-lived
same,RANTES secretion in RIG-I−/− MEFs,[2],intact
same,induced RANTES in TRIF−/− MEFs,[2],unaffected by the absence of TRIF
same,RANTES response in MAVS-deficient MEFs,[2]; MAVS+/+ and MAVS−/− MEFs,induces RANTES via a MAVS-independent pathway
same,induced IFN-β mRNA and protein in MyD88−/− macrophages,"[3]; 2 h mRNA, 24 h protein",not significantly altered
same,induced TNF-α mRNA and protein in MyD88−/− macrophages,"[3]; 2 h mRNA, 24 h protein",not significantly altered
same,response to restimulation with either LPS or DMXAA after pretreatment,"[3]; 24 h pretreatment, restimulated 1 h",induces a state of refractoriness
same,TNF-α mRNA in the absence of TLR4,"[3]; TLR4−/− peritoneal macrophages, 2 h",induces TNF-α to wild-type levels
same,induction of IFN-β protein and IP-10 mRNA compared with LPS,[3]; murine macrophages,much more potent inducer
same,IFN-β steady-state mRNA relative to LPS,"[3]; peritoneal exudate macrophages, 2 h, real-time PCR",~10 fold
same,effect on Ft LVS replication,[4],no effect
